# Like-named read-outs stand apart in the source and are kept apart here.
# Assays:
# [1] = cited from earlier work
# Solubility = format: physicochemical; details: 25° C. and pH 4.3
# [2] = cited from earlier work; remark: listed apart in the source
SMILES,solubility in water ([1]; 25° C. and pH 4.3),solubility in water as equivalent PMG-acid (Solubility; per 1000 g water),"weight percent ""acid"" in the saturated solution (Solubility; saturated aqueous solution)",pKa (first of three printed) [2],pKa (second of three printed) [2],pKa (third of three printed) [2],solubility in water ([1]; 25° C.),"solubility in common organic solvents ([1]; acetone, alcohol and xylene)"
CC(C)N.O=C(O)CNCP(=O)(O)O [isopropylamine salt of glyphosate],1050 grams of salt in a liter of water,778 grams of equivalent PMG-acid per liter,37.95%,–,–,–,–,–
"O=C(O)CNCP(=O)(O)O [glyphosate, N-phosphonomethylglycine]",–,–,–,2.74,5.63,10.18,11.6 grams per liter of water,insoluble
